Values of other authors in patent publication US20030152481A1 (priority 2002, published 2003).

Settings: rat, in vivo

OCCc1ccccc1 [2-phenylethanol]
oral LD50: 1790 mg/kg
